Experimental data taken from US20240189312A1, “COMPOSITION FOR TREATING ACUTE BRAIN INJURY OR NEURODEGENERATIVE DISEASE, METHOD OF MAKING, AND USE THEREOF” (priority 2022, published 2024).
Entries after “also recorded” stand apart in the source; their conditions may differ.

Columns and labels:
[1] = target: CYP46A (Homo sapiens, UniProt Q9Y6A2); settings: cited from earlier work
[2] = tested on: primary cultured mouse cortical neurons; assay: NMDA toxicity (neuronal loss, LDH release); assay type: cell-based; settings: MK-801 10 μM
Experimental: (§1) Cultures of mouse primary cortical neurons were prepared as described previously and modified [Leng T D, Lin J, Sun H W, Zeng Z, O'Bryant Z, Inoue K, et al. Local anesthetic lidocaine inhibits TRPM7 current and TRPM7-mediated zinc toxicity. CNS Neurosci Ther 2015; 21: 32-9.]. The use of mice for neuronal cultures was approved by the Institutional Animal Care and Use Committee of Morehouse School of Medicine. Briefly, the brains of fetuses (embryonic day 16) were removed quickly from anesthetized pregnant Swiss mice and placed in cold Ca2+/Mg2+-free PBS. Cerebral cortices were dissected and incubated with 0.05% trypsin-EDTA for 10 min at 37° C., followed by trituration. Cells were plated in 35-mm poly-L-ornithine-coated culture dishes at a density of 1×10^6 cells. […]
(§2) LDH release was measured using a cytotoxicity detection kit (Cat. No. 11644793001, Roche Diagnostics) according to the manufacturer's instruction, as described in previous studies [Leng T D, Lin J, Sun H W, Zeng Z, O'Bryant Z, Inoue K, et al. Local anesthetic lidocaine inhibits TRPM7 current and TRPM7-mediated zinc toxicity. […] The absorbance at 492 and 620 nm was measured by spectrometer (SpectraMax Plus, Molecular devices, Sunnyvale, CA, USA). LDH release was determined based on subtracting absorbance at 620 nm from that at 492 nm.

[3] = tested on: NMDA receptor; settings: cited from earlier work
[4] = tested on: select neurons; settings: cited from earlier work
[5] = tested on: primary cultured mouse cortical neurons; assay: OGD toxicity (neuronal loss, LDH release); assay type: cell-based; settings: MK-801
Experimental: as §1, §2

[6] = tested on: 5XFAD mice; assay: Alzheimer's disease model in 5XFAD mice; settings: 5XFAD test mice
Experimental: 5XFAD mice are obtained. 5XFAD transgenic mice express 5 human familial Alzheimer's disease (FAD) mutants in amyloid-beta precursor protein (APP) and presenilin 1 (PS1) driven by the Thy1 promoter. […] Experimental 5XFAD mice are obtained by crossing heterozygous transgenic mice with C57BL/6 wild-type breeders. Wild-type littermates are used as controls and randomly allotted to each experiment. Male mice are used in all experiments. All mice are housed in a standard animal facility with a 12 h alternating light/dark cycle.
Control mice are administered a placebo.
A Barns maze protocol is performed. Briefly, the apparatus is a revolvable white acrylic disc elevated from the floor with 18 holes equally spaced along the perimeter of the circle and positioned in a brightly light. One hole is selected as the escape target hole, and a dark escape chamber is placed under the target hole consistent for each trial. Mice are allowed to freely explore on the platform for 5 min without the escape chamber, and habituated to the escape chamber for 2 min on two consecutive days. In the training phase, a session of 2 trials is performed by each mouse. Each mouse is covered under a nontransparent cylinder placed in the center of the maze. After 15 s, the cylinder is gently removed to allow mouse to explore the maze for 180 s until the target hole is found. […] The maze and the escape chamber are wiped with 70% ethanol. The mouse is identified to find the target chamber when the back of the mice crossed the target hole. The mouse is considered to have entered the target chamber if the entire body is on the platform. The primary latency that mice took to find the target hole is documented for each trial. Two trials per day are performed for eight days. For the probe test, memory retention is assessed 5 days after the last training trial. The duration of the probe trial is 90 s. […] The position of the target hole is the same as that in the training period. The primary latency to find the target hole and time in the target quadrant is analyzed by Anymaze software.
A T maze protocol is performed. Briefly, before performing the task, the diet of mice is restricted daily to hold 80% to 85% of their primary body weight throughout the task. The T maze apparatus is placed in a quiet room, and light intensity is held at a constant level. During the training, a forced choice is followed by a free choice for each trial. In the forced-choice phase, a food pellet is placed in either the left or right choice arm. The door to the choice arm with food pellet is opened, while the other choice arm is closed. The mouse is allowed to consume the pellet. When the pellet is consumed, the mouse is returned to the start arm. After the forced choice is completed, the free choice is initialized. During the free choice, all doors are open; the mouse is allowed to freely enter one of two arms. If the mouse entered the same arm as in the forced-choice phase, the trial is considered to result in an “error,” and the pellet is removed. If the mouse entered the opposite arm as in the forced-choice phase, the trial is considered to have a “correct” result, and the mouse is rewarded with a food pellet. Following each session, the apparatus is cleaned with 70% ethanol. Six consecutive trials are performed in a session per day. The percentage of correct responses is calculated in each session.
Motor activity and anxiety is studied in the open field test. […] The mouse activity is monitored under an infrared camera for 5 min.

[7] = tested on: MCAO induced ischemic brain injury; assay: MCAO ischemic stroke model, TTC staining; assay type: in vivo, mice; settings: ICV 40 μM stock, 1 μl, 3 h before 45 min MCAO, TTC at 24 h
[8] = target: CYP46A1 (Homo sapiens, UniProt Q9Y6A2); settings: cited from earlier work
CYP46A1, sequence (Q9Y6A2 whole entry, species assumed): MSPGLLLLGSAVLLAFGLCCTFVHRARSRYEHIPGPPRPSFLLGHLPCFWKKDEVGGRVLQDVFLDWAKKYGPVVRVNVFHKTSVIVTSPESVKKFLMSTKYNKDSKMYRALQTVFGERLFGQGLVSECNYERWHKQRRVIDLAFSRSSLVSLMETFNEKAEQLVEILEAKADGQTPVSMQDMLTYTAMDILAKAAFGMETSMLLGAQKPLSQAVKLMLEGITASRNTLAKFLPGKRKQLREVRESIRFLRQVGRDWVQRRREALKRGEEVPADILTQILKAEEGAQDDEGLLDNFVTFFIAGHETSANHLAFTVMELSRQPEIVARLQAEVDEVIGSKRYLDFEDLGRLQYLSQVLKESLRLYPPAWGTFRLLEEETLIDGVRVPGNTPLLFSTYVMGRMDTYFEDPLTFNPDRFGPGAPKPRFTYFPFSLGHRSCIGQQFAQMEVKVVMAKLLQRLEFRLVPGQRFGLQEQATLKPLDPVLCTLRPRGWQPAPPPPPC

CYP46A, sequence (Q9Y6A2 whole entry): as the sequence (Q9Y6A2 whole entry, species assumed) above

N[C@@H]1C[C@H]1c1ccccc1 (racemic) [tranylcypromine]
affinity for CYP46A [1]: nanomolar affinity

C[C@]12N[C@H](Cc3ccccc31)c1ccccc12 [MK-801, dizocilpine]
inhibition of 24S-HC increased NMDA toxicity [2]: completely inhibited
inhibition of 24S-HC increased NMDA toxicity ([2]; listed as MK801): completely abolishes the toxicity of 24S-HC
Aβ[1-42]-triggered excitotoxicity via the NMDA receptor [3]: can be prevented
cytoplasmic vacuoles in select neurons [4]: causes cytoplasmic vacuoles in select neurons
inhibition of 24S-HC increased OGD toxicity [5]: completely inhibited
inhibition of 24S-HC increased OGD toxicity ([5]; listed as MK801): completely abolishes the toxicity of 24S-HC

Clc1ccccc1C(c1ccccc1)(c1ccccc1)n1ccnc1 [clotrimazole]
affinity for CYP46A [1]: nanomolar affinity

S=C(NC1CCCCC1)N1CCC(c2cnc[nH]2)CC1 [thioperamide]
affinity for CYP46A [1]: nanomolar affinity

C[C@@H](c1ncncc1F)[C@](O)(Cn1cncn1)c1ccc(F)cc1F [voriconazole]
affinity for CYP46A [1]: nanomolar affinity
Aβ deposition [6]: attenuate Aβ deposition
cognitive functions [6]: improve cognitive functions
microgliosis [6]: decrease microgliosis
neuroinflammation [6]: reduce neuroinflammation
synapse loss and neuronal loss [6]: reversed
ischemic brain injury (infarction, TTC staining) [7]: reduces ischemic brain injury
ischemic brain injury (infarction, TTC staining) ([7]; listed as Vori): dramatically reduced ischemic brain injury; also recorded: protects against 45 min MCAO induced ischemic brain injury
synthesis of 24S-HC in vitro ([8]; at ˜1 M (so in the source)): almost completely inhibit
inhibitor of CYP46A1 [8]: potent inhibitor
